This is an account of results in patent US9334263B2, “Compositions useful for treating disorders related to kit” (BLUEPRINT MEDICINES CORPORATION, priority 2013, dated 2016).

Entries after “also recorded” stand apart in the source; their conditions may differ.

T3 sequence (P16234 24-1089 D842V): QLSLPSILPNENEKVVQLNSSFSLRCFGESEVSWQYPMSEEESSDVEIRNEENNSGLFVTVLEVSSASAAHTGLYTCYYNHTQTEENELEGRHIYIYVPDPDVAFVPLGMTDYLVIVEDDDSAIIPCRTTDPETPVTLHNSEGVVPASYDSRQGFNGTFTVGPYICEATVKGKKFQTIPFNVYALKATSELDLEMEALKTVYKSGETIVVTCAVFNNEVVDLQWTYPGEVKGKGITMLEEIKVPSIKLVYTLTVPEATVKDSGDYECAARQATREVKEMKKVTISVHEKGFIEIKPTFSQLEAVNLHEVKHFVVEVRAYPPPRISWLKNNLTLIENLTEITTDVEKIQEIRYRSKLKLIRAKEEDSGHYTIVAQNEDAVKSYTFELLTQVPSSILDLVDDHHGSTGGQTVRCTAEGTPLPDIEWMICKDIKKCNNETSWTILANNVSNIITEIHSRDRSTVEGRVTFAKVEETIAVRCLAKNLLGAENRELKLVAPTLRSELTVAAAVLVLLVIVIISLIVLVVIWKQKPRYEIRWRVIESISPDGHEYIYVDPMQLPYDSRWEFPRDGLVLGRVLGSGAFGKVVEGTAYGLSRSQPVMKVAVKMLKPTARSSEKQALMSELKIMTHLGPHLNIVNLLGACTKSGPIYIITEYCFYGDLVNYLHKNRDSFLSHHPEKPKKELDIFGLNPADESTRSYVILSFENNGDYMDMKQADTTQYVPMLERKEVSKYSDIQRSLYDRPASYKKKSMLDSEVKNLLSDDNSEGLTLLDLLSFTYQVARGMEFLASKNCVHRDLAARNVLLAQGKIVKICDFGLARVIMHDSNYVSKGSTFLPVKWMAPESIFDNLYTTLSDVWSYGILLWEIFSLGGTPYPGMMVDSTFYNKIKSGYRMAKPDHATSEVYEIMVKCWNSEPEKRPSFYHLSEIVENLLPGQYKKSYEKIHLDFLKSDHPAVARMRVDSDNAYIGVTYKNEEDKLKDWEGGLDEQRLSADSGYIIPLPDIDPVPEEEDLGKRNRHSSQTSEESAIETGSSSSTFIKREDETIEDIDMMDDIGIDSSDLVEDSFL
T2 sequence (P10721 26-976): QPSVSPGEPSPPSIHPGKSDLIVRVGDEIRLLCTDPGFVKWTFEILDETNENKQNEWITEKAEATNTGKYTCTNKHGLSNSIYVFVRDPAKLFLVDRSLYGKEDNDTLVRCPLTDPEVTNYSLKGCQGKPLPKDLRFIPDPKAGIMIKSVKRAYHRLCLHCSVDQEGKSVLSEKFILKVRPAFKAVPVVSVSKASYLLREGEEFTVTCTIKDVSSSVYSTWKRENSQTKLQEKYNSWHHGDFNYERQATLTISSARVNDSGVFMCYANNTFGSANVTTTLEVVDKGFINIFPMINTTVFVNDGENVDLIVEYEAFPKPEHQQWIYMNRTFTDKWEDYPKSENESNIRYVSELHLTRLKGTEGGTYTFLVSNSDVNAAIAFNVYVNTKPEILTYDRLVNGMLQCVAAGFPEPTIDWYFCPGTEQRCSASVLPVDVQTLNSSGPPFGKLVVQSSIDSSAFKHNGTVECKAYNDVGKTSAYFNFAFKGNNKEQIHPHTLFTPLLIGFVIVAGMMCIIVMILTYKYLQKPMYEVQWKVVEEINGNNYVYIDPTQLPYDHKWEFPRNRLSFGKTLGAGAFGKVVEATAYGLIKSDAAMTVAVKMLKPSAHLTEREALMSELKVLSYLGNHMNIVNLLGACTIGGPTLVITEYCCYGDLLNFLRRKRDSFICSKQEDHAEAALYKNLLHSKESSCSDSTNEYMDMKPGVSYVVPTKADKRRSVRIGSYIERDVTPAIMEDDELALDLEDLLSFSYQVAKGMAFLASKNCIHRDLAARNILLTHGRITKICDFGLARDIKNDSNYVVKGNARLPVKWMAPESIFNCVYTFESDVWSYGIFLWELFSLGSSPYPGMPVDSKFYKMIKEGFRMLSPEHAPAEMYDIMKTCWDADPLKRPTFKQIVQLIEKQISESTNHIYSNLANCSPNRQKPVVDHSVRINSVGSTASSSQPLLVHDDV
T1 sequence (P10721 26-976 D816V): as the sequence (P10721 26-976) above, with D791V counted along it

One assay has as its target T1, D816V Kit (Homo sapiens, UniProt P10721, D816V).
T1 construct: purchased Carna Bioscience 08-156
Nature of the assay: Kit D816V assay at Km (Caliper electrophoretic mobility shift). In kind it is biochemical. The settings on record: 15 uM ATP, 25 C, 90 minutes. Put shortly: (§1)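 Read-out is the ratio of phosphorylated to unphosphorylated fluorescent peptide, resolved by mobility shift on a Caliper EZ Reader 2.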
As for `CC(C)N1CCc2ccc(Nc3ncnc(N4CCN(c5ncc(Cc6ccccc6)cn5)CC4)n3)cc2C1` [Compound 148], the IC50 is under 1 nM.
The same measure, in the same setting: as for `CN1CCN(c2cccc(Nc3ncnc(N4CCN(c5ncc(Cc6ccccc6)cn5)CC4)n3)c2)CC1` [Compound 157], the figure is under 1 nM.
Take `c1ccc(Cc2cnc(N3CCN(c4ncnc(Nc5ccc(O[C@@H]6CCCNC6)cc5)n4)CC3)nc2)cc1` [Compound 161]: the IC50 is under 1 nM.
Regarding `O[C@@H]1CCCN(c2ccc(Nc3ncnc(N4CCN(c5ncc(Cc6ccccc6)cn5)CC4)n3)cc2)C1` [Compound 165], the IC50 lay within 1.01 to 10 nM.
For `O[C@H]1CCCN(c2ccc(Nc3ncnc(N4CCN(c5ncc(Cc6ccccc6)cn5)CC4)n3)cc2)C1` [Compound 166], the IC50 was under 1 nM.
For `CN1CCC(Cn2cc(Nc3ncnc(N4CCN(c5ncc(Cc6ccccc6)cn5)CC4)n3)cn2)CC1` [Compound 174], the IC50 was under 1 nM.
As to `Oc1nc(N2CCN(c3ncnc(Nc4cnn(CC5CCNCC5)c4)n3)CC2)ncc1Cc1ccccc1` [Compound 179], the IC50 was under 1 nM.
For the compound `OC1CCC(NCc2cccc(Nc3ncnc(N4CCN(c5ncc(Cc6ccccc6)cn5)CC4)n3)c2)C1` (centres unmarked) [Compound 214], the IC50 is under 1 nM.
With `CN(C)C1CCN(Cc2cccc(Nc3ncnc(N4CCN(c5ncc(Cc6ccccc6)cn5)CC4)n3)c2)C1` (centres unmarked) [Compound 259], the IC50 was under 1 nM.
For `CN(C)[C@@H]1CCN(Cc2cccc(Nc3ncnc(N4CCN(c5ncc(Cc6ccccc6)cn5)CC4)n3)c2)C1` [Compound 261], the IC50 is under 1 nM.

The next assay has as its target T2, wild type Kit (Homo sapiens, UniProt P10721).
T2 construct: purchased Carna Bioscience 08-156
Briefly: Kit wild type assay at Km (Caliper electrophoretic mobility shift). In kind it is biochemical. Particulars: 400 uM ATP, 25 C, 90 minutes; read-out: WT KIT. Put shortly: as §1
In the case of `CC(C)N1CCc2ccc(Nc3ncnc(N4CCN(c5ncc(Cc6ccccc6)cn5)CC4)n3)cc2C1` [Compound 148], the IC50 was under 10 nM.
Take `CN1CCN(c2cccc(Nc3ncnc(N4CCN(c5ncc(Cc6ccccc6)cn5)CC4)n3)c2)CC1` [Compound 157]: the IC50 was under 10 nM.
Regarding `c1ccc(Cc2cnc(N3CCN(c4ncnc(Nc5ccc(O[C@@H]6CCCNC6)cc5)n4)CC3)nc2)cc1` [Compound 161], the IC50 is under 10 nM.
Take `O[C@@H]1CCCN(c2ccc(Nc3ncnc(N4CCN(c5ncc(Cc6ccccc6)cn5)CC4)n3)cc2)C1` [Compound 165]: the IC50 fell in the range of 100 to 1000 nM.
`O[C@H]1CCCN(c2ccc(Nc3ncnc(N4CCN(c5ncc(Cc6ccccc6)cn5)CC4)n3)cc2)C1` [Compound 166]: the IC50 was 11 to 100 nM.
Regarding `CN1CCC(Cn2cc(Nc3ncnc(N4CCN(c5ncc(Cc6ccccc6)cn5)CC4)n3)cn2)CC1` [Compound 174], the IC50 was under 10 nM.
Take `Oc1nc(N2CCN(c3ncnc(Nc4cnn(CC5CCNCC5)c4)n3)CC2)ncc1Cc1ccccc1` [Compound 179]: the IC50 is under 10 nM.
`OC1CCC(NCc2cccc(Nc3ncnc(N4CCN(c5ncc(Cc6ccccc6)cn5)CC4)n3)c2)C1` (centres unmarked) [Compound 214]: the IC50 lay within 11 to 100 nM.
With `CN(C)C1CCN(Cc2cccc(Nc3ncnc(N4CCN(c5ncc(Cc6ccccc6)cn5)CC4)n3)c2)C1` (centres unmarked) [Compound 259], the IC50 was under 10 nM.
Consider `CN(C)[C@@H]1CCN(Cc2cccc(Nc3ncnc(N4CCN(c5ncc(Cc6ccccc6)cn5)CC4)n3)c2)C1` [Compound 261], for which the IC50 is under 10 nM.

The next assay addresses T3, PDGFRA D842V (Homo sapiens, UniProt P16234, D842V).
T3 construct: purchased ProQinase 0761-0000-1
Nature of the assay: PDGFRA D842V assay at Km (Caliper electrophoretic mobility shift). It counts as biochemical. The settings on record: 15 uM ATP, 25 C, 90 minutes; read-out: PDFGRA D842V. On the procedure: In order to assess the activity of chemical compounds against the relevant kinase of interest, the Caliper LifeSciences electrophoretic mobility shift technology platform is used. Fluorescently labeled substrate peptide is incubated in the presence of kinase and ATP so that a […] proportion of the peptide is phosphorylated. At the end of the reaction, the mix of phosphorylated (product) and non-phosphorylated (substrate) peptides are passed through the microfluidic system of the Caliper EZ Reader 2, under an applied potential difference. The presence of the phosphate group on the product peptide provides a difference in mass and charge between those of the substrate peptide, resulting in a separation of the substrate and product pools in the sample. As the pools pass a LEDS within the instrument, these pools are detected and resolved as separate peaks. The ratio between these peaks therefore reflects the activity of the chemical matter at that concentration in that well, under those conditions.
The reaction was stopped by the addition of 70 ul of Stop buffer (100 mM HEPES pH 7.5, 0.015% Brij 35, 35 mM EDTA and 0.2% of Coating Reagent 3 (Caliper Lifesciences)). The plate was then read on a Caliper EZReader 2 (protocol settings: −1.9 psi, upstream voltage −500, downstream voltage −3000, post sample sip 38 s).
Regarding `CC(C)N1CCc2ccc(Nc3ncnc(N4CCN(c5ncc(Cc6ccccc6)cn5)CC4)n3)cc2C1` [Compound 148], the IC50 is under 1 nM.
Still for that read-out and setting: as for `CN1CCN(c2cccc(Nc3ncnc(N4CCN(c5ncc(Cc6ccccc6)cn5)CC4)n3)c2)CC1` [Compound 157], the figure is 1.01 to 10 nM; as for `c1ccc(Cc2cnc(N3CCN(c4ncnc(Nc5ccc(O[C@@H]6CCCNC6)cc5)n4)CC3)nc2)cc1` [Compound 161], 1.01 to 10 nM.
Same read-out and setting: as for `O[C@@H]1CCCN(c2ccc(Nc3ncnc(N4CCN(c5ncc(Cc6ccccc6)cn5)CC4)n3)cc2)C1` [Compound 165], the figure is 1.01 to 10 nM; as for `O[C@H]1CCCN(c2ccc(Nc3ncnc(N4CCN(c5ncc(Cc6ccccc6)cn5)CC4)n3)cc2)C1` [Compound 166], 1.01 to 10 nM.
For the compound `CN1CCC(Cn2cc(Nc3ncnc(N4CCN(c5ncc(Cc6ccccc6)cn5)CC4)n3)cn2)CC1` [Compound 174], the IC50 was under 1 nM.
`Oc1nc(N2CCN(c3ncnc(Nc4cnn(CC5CCNCC5)c4)n3)CC2)ncc1Cc1ccccc1` [Compound 179]: the IC50 was under 1 nM.
Take `OC1CCC(NCc2cccc(Nc3ncnc(N4CCN(c5ncc(Cc6ccccc6)cn5)CC4)n3)c2)C1` (centres unmarked) [Compound 214]: the IC50 is under 1 nM.
With `CN(C)C1CCN(Cc2cccc(Nc3ncnc(N4CCN(c5ncc(Cc6ccccc6)cn5)CC4)n3)c2)C1` (centres unmarked) [Compound 259], the IC50 is under 1 nM.
As for `CN(C)[C@@H]1CCN(Cc2cccc(Nc3ncnc(N4CCN(c5ncc(Cc6ccccc6)cn5)CC4)n3)c2)C1` [Compound 261], the IC50 was under 1 nM.

In another assay the target is T4, Kit D816V (HMC1.2 cells, Kit V560G and D816V) (Homo sapiens, UniProt P10721, D816V/V560G).
T4 construct: endogenous in cells; host or cells: HMC1.2 cells
T4 sequence (P10721 26-976 V560G/D816V): as the sequence (P10721 26-976) above, with V535G, D791V counted along it
Nature of the assay: HMC1.2 autophosphorylation assay (AlphaLISA, phospho-Y719 c-Kit). Particulars: Kit autophosphorylation at tyrosine 719, 90 minutes, read-out: Cellular Activity. It counts as cell-based. An outline of the steps: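 AlphaScreen signal comes from lysed HMC1.2 cells incubated with phospho-Y719 and total c-Kit antibodies (15 nM final), acceptor beads and then streptavidin donor beads, 2 h each at room temperature. Beforehand, cells deprived of serum overnight received compound for 90 min as a 10-point series, 25 uM–95.4 pM, 0.25% DMSO.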
With `CC(C)N1CCc2ccc(Nc3ncnc(N4CCN(c5ncc(Cc6ccccc6)cn5)CC4)n3)cc2C1` [Compound 148], the IC50 lay within 10 to 100 nM.
Consider `CN1CCN(c2cccc(Nc3ncnc(N4CCN(c5ncc(Cc6ccccc6)cn5)CC4)n3)c2)CC1` [Compound 157], for which the IC50 lay in the range of 100 to 1000 nM.
For the compound `c1ccc(Cc2cnc(N3CCN(c4ncnc(Nc5ccc(O[C@@H]6CCCNC6)cc5)n4)CC3)nc2)cc1` [Compound 161], the IC50 is under 10 nM.
On to `O[C@@H]1CCCN(c2ccc(Nc3ncnc(N4CCN(c5ncc(Cc6ccccc6)cn5)CC4)n3)cc2)C1` [Compound 165], for which the IC50 is 10 to 100 nM.
The same measure, in the same setting: as for `O[C@H]1CCCN(c2ccc(Nc3ncnc(N4CCN(c5ncc(Cc6ccccc6)cn5)CC4)n3)cc2)C1` [Compound 166], the figure is under 10 nM; as for `CN1CCC(Cn2cc(Nc3ncnc(N4CCN(c5ncc(Cc6ccccc6)cn5)CC4)n3)cn2)CC1` [Compound 174], under 10 nM; as for `Oc1nc(N2CCN(c3ncnc(Nc4cnn(CC5CCNCC5)c4)n3)CC2)ncc1Cc1ccccc1` [Compound 179], 1000 to 10000 nM.
For `OC1CCC(NCc2cccc(Nc3ncnc(N4CCN(c5ncc(Cc6ccccc6)cn5)CC4)n3)c2)C1` (centres unmarked) [Compound 214], the IC50 is 10 to 100 nM.
In the case of `CN(C)C1CCN(Cc2cccc(Nc3ncnc(N4CCN(c5ncc(Cc6ccccc6)cn5)CC4)n3)c2)C1` (centres unmarked) [Compound 259], the IC50 lay within 10 to 100 nM.
Regarding `CN(C)[C@@H]1CCN(Cc2cccc(Nc3ncnc(N4CCN(c5ncc(Cc6ccccc6)cn5)CC4)n3)c2)C1` [Compound 261], the IC50 lay in the range of 10 to 100 nM.

In the next assay the test system is P815 tumor cells. Briefly: P815 mastocytoma xenograft model. In kind it is in vivo, mouse. Particulars: female BALB/c nude mice, P815 s.c., p.o. BID x 10. On the procedure: Compound 165 and Dasatinib were evaluated in a P815 mastocytoma xenograft model. P815 tumor cells (ATCC, Manassas, Va., cat # ATCC® TIB-64) were maintained in vitro as a suspension and monolayer culture in RPMI1640 medium supplemented with 10% fetal calf serum at 37° C. in an atmosphere of 5% CO2 in air. The tumor cells were sub-cultured twice weekly by trypsin-EDTA treatment. The cells growing in an exponential growth phase were harvested and counted for tumor inoculation.
Tumor sizes were measured every other day in two dimensions using a caliper, and the volume was expressed in mm^3 using the formula: V=0.5 a×b^2 where a and b were the long and short diameters of the tumor, respectively. […] T-C was calculated with T as the median time (in days) required for the treatment group tumors to reach a predetermined size (e.g., 1000 mm^3), and C as the median time (in days) for the control group tumors to reach the same size. […]
TGI was calculated for each group using the formula: TGI (%)=[1−(Ti−T0)/(Vi−V0)]×100; Ti is the average tumor volume of a treatment group on a given day, T0 is the average tumor volume of the treatment group on the day of treatment start, Vi is the average tumor volume of the vehicle control group on the same day with Ti, and V0 is the average tumor volume of the vehicle group on the day of treatment start. Tumor weight was measured at the endpoint. […]
Turning to `O[C@@H]1CCCN(c2ccc(Nc3ncnc(N4CCN(c5ncc(Cc6ccccc6)cn5)CC4)n3)cc2)C1` [Compound 165], the “tumor growth inhibition / antitumor activity” value is reported as “effective in inhibiting tumor growth; also recorded: observable antitumor activity”.
